From patent US20230405031A1, “METHODS AND COMPOSITIONS RELATED TO RECEPTOR-MEDIATED GLUCOSE SENSING” (Ohio State Innovation Foundation, priority 2020, published 2023)

Experiments:
C2C12 cells = assay: NAD levels in differentiated C2C12 cells cultured at high or low glucose; type: cell-based; conditions: 20 mM added during the last 6 h to low-glucose (5 mM) cultured differentiated C2C12 cells, 54 h culture
Procedure: FIGS. 8A-8E show STR signaling involves ERK2 and SIRT1 activation. (8A) ERK1/2 phosphorylation in gastrocnemius from fed mice. Quantitation includes both ERK1 and ERK2 bands (n=6/group). (8B-8C) ERK2 phosphorylation in response to bilateral intramuscular injection of either sucralose or 3-OMG (right gastroc) or vehicle (left gastroc) in anesthetized mice after an overnight fast (n=8/group). (8D) NAD levels in C2C12 cells culture in high (black dots) or low (blue dots) glucose for 54 h. In select cells, equal molarity (20 mM) of glucose (Glu) or 3-OMG was added during the last 6 h (ANOVA). (8E) PGC1a acetylation in gastrocnemius from 5 hours fasted mice using immunoprecipitation (IP) with anti-PGC1a (Millipore ST1202) and then immunoblotting (IB) with anti-PGC1a and anti-acetyl-lysine (CST #9441). IB of PGC1a is shown in input. Student's T-test, p value. Determination of downstream effectors of NAD^+-SIRT axis. To shed light on the link between STR activation and NAD regulation, differentiated C2C12 cells were cultured at high (25 mM) or low (5 mM) glucose for 54 hours and observed an anticipated increase in NAD levels during the low-glucose condition (FIG. 8D) (18, 69). […] Thus, it appears that a STR-mediated regulation of NAD^+-SIRT axis is sufficient to account for key muscle adaptations in T1R2-KO mice. […]

ERK2 phosphorylation = ERK2 phosphorylation in gastrocnemius after intramuscular injection of STR ligands; type: in vivo; conditions: intra-muscular injection, anesthetized mice after overnight fast, WT vs T1R2-KO, vs vehicle in contralateral muscle
Procedure: FIGS. 8A-8E show STR signaling involves ERK2 and SIRT1 activation. (8A) ERK1/2 phosphorylation in gastrocnemius from fed mice. Quantitation includes both ERK1 and ERK2 bands (n=6/group). (8B-8C) ERK2 phosphorylation in response to bilateral intramuscular injection of either sucralose or 3-OMG (right gastroc) or vehicle (left gastroc) in anesthetized mice after an overnight fast (n=8/group). (8D) NAD levels in C2C12 cells culture in high (black dots) or low (blue dots) glucose for 54 h. In select cells, equal molarity (20 mM) of glucose (Glu) or 3-OMG was added during the last 6 h (ANOVA). (8E) PGC1a acetylation in gastrocnemius from 5 hours fasted mice using immunoprecipitation (IP) with anti-PGC1a (Millipore ST1202) and then immunoblotting (IB) with anti-PGC1a and anti-acetyl-lysine (CST #9441). IB of PGC1a is shown in input. Student's T-test, p value. Elucidation of signaling pathway leading to PARP1 regulation and NAD^+ bioavailability. The reduced PARP1 activity in T1R2-KO muscles correlates with substantial increases in NAD^+ levels (FIGS. 2C and 3B). STR belong to the Gq family of GPCRs and, in various tissues, activate phospholipase C (PLC)-mediated signaling cascades (9, 62) (FIG. 7). PARP1 is mainly regulated in response to DNA damage (63), but it was reasoned that a downstream effector(s) of PLC-dependent pathway may regulate PARP1 in skeletal muscle. […]

SIRT1 = molecular target: T1, SIRT1 (Homo sapiens, UniProt Q96EB6); conditions: read-out: Km (affinity for NAD+); cited from earlier work
T1 sequence (Q96EB6 1-747): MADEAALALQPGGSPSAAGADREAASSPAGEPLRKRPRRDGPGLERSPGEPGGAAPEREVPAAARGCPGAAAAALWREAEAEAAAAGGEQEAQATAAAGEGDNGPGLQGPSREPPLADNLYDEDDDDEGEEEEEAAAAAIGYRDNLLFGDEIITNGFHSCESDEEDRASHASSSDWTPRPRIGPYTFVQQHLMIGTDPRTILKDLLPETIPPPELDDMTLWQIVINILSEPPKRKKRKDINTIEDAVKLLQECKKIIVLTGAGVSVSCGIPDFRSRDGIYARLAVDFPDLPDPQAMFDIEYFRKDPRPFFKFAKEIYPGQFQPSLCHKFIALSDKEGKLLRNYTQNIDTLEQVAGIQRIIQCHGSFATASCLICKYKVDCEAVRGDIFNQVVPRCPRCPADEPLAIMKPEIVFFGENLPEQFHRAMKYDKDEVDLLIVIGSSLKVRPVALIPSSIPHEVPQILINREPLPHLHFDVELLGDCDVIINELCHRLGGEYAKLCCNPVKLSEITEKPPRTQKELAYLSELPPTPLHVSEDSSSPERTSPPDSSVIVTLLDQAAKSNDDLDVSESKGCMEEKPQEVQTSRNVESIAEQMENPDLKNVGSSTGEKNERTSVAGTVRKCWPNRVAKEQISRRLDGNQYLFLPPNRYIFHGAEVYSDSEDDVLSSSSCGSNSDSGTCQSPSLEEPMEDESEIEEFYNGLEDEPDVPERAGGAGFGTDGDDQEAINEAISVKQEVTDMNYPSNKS

SIRT2 = molecular target: T2, SIRT2 (Homo sapiens, UniProt Q8IXJ6); conditions: read-out: Km (affinity for NAD+); cited from earlier work
T2 sequence (Q8IXJ6 1-389): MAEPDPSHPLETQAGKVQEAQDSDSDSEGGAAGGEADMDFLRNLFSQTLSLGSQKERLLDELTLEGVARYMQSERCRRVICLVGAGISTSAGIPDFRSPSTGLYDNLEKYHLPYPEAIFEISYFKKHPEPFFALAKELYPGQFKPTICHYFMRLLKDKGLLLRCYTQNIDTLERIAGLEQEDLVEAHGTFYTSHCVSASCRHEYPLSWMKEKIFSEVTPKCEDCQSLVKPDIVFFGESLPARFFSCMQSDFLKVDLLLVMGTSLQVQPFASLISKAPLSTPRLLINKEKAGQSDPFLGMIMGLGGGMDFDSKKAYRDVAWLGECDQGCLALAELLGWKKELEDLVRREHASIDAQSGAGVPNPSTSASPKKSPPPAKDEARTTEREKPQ

muscle fibers = assay: Oxygen flux in permeabilized muscle fibers (high resolution respirometry); design: species or system mice; conditions: after malate+pyruvate and ADP, data not shown
Source text: FIGS. 4A-4H show STRs regulate mitochondrial function and exercise capacity. (4A) Oxygen flux in muscle fibers in response to malate+pyruvate and ADP. […] (4B) Oxygen consumption rate (OCR) in differentiated myoblasts. Oligomycin (Comp V inhibition), FCCP (Carbonyl cyanide-4 (trifluoromethoxy) phenylhydrazone; uncoupler), rotenone (Comp I inhibition) (n=5/group). (4C) Quantitative analysis of lactate, ATP and ADP in gastrocnemius following 5-hours fasting (n=9-11/group). (4D) Succinate dehydrogenase staining in muscle sections. Arrows show SDH staining in gastrocnemius n=6/group). (4E) Immunoblotting of mitochondrial complex proteins with quantitation (n=6/group). (4F) Exercise endurance in mice at […] grade and 20 m/min (n=8/group). (4G) Oxygen consumption and (4H) respiratory exchange ratio (RER) under steady state conditions (plateaued values for at least 10 min) before exhaustion in mice subjected to a submaximal exercise bout as in (4F). Student's t-test, p value for (4B-4H).
ADPr is converted to PRPP, which can be used either for NAD^+ regeneration (salvage pathway), or for nucleotide synthesis (FIG. 2F), showing that ADPr can be a metabolic link between NAD^+ and purine/pyrimidine metabolism. Therefore, it was reasoned that the unprecedented depletion of ADPr in T1R2-KO muscles can be due to reduced NAD-consumption and/or increased PRPP utilization for nucleotide biosynthesis. […]

CO[C@@H]([C@H](O)[C@H](O)CO)[C@@H](O)C=O [3-OMG, 3-O-methylglucose]
NAD levels (C2C12 cells): caused a significant drop in NAD, although to a lesser extent than 20 mM glucose | ERK2 phosphorylation (ERK2 phosphorylation): activated ERK2 phosphorylation in WT, but not in T1R2-KO muscles

NC(=O)c1ccc[n+]([C@@H]2O[C@H](COP(=O)([O-])OP(=O)(O)OC[C@H]3O[C@@H](n4cnc5c(N)ncnc54)[C@H](O)[C@@H]3O)[C@@H](O)[C@H]2O)c1 [NAD^+, Nicotinamide adenine dinucleotide]
Km (SIRT1): 95 µM | Km (SIRT2): 83 µM

OC[C@H]1O[C@H](O[C@]2(CCl)O[C@H](CCl)[C@@H](O)[C@@H]2O)[C@H](O)[C@@H](O)[C@H]1Cl [sucralose]
ERK2 phosphorylation (ERK2 phosphorylation): activated ERK2 phosphorylation in WT, but not in T1R2-KO muscles

antimycin A
Oxygen flux (muscle fibers): suppressed oxygen flux
